# The source made the active and inactive calls. The calls are words filed in the database; no cut-off is given here.
# Test system: not listed separately
# Assay: Hepatotoxicity in Swiss mouse infected with trypomastigote form of Trypanosoma cruzi Y assessed as plasma alanine aminotransferase level at 50 to 100 mg/kg, po administered via gavage for 7 days from day 5 post-infection by spectrophotometry
# Format: toxicity, organism-based
# Conditions: in vivo, 168 h, dose 50-100 mg/kg, time 7 day
row,Structure (SMILES),Activity
1,CCCc1ccc(OCC(O)Cn2cc(COc3ccc(Cl)cc3)nn2)c(OC)c1 (racemic),Non-Toxic
2,CCCc1ccc(OCC(O)Cn2cc(COc3ccc([N+](=O)[O-])cc3)nn2)c(OC)c1 (racemic),Non-Toxic

# Target: Cruzipain (Trypanosoma cruzi) (UniProt P25779)
# Assay: Inhibition of recombinant Trypanosoma cruzi Cruzain using Z-FR-AMC as substrate at 100 uM preincubated with enzyme for 10 mins and measured for 5 mins by fluorescence based analysis
# Conditions: time 15.0 min
# Cruzipain (Trypanosoma cruzi), sequence (P25779 123-467 limits assumed): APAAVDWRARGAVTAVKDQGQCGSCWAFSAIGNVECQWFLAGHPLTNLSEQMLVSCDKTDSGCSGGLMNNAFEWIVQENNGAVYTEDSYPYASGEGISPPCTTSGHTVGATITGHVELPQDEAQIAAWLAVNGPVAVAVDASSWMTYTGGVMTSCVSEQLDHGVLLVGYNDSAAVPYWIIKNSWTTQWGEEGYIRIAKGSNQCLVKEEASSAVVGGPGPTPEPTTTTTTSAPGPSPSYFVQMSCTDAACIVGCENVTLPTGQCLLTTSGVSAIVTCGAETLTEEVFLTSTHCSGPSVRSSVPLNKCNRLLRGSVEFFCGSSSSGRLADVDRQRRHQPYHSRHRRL
row,inhibition [%],Structure (SMILES)
1,7.2,CCCc1ccc(OCC(=O)Cn2cc(-c3ccccc3)nn2)c(OC)c1
2,7.2,C=CCc1ccc(OCC(O)Cn2cc(COc3ccc(C(C)C)cc3)nn2)c(OC)c1 (racemic)
3,7.2,CCCc1ccc(OCC(O)Cn2cc(COc3ccc(OC)cc3)nn2)c(OC)c1 (racemic)

# Second part, the molecule before the results:
row,Structure (SMILES),inhibition [%]
1,CCCc1ccc(OCC(O)Cn2cc(COc3ccc(Cl)cc3)nn2)c(OC)c1 (racemic),29.3
2,CCCc1ccc(OCC(O)Cn2cc(COc3ccc([N+](=O)[O-])cc3)nn2)c(OC)c1 (racemic),24

# Test system: not listed separately
# Assay: Toxicity in Swiss mouse infected with trypomastigote form of Trypanosoma cruzi Y assessed as collateral effects at 10 to 100 mg/kg, po administered via gavage for 7 days from day 5 post-infection
# Format: organism-based
# Conditions: in vivo, 168 h, dose 10-100 mg/kg, time 7 day
row,Structure (SMILES),Activity
1,CCCc1ccc(OCC(O)Cn2cc(COc3ccc([N+](=O)[O-])cc3)nn2)c(OC)c1 (racemic),Non-Toxic

# Test system: not listed separately
# Assay: Toxicity in po dosed Swiss mouse infected with trypomastigote form of Trypanosoma cruzi Y assessed as apathy administered via gavage for 7 days from day 5 post-infection and measured on day 13 post-infection
# Format: organism-based
# Conditions: in vivo, 192 h, time 8 day
row,Structure (SMILES),Activity
1,CCCc1ccc(OCC(O)Cn2cc(COc3ccc(Cl)cc3)nn2)c(OC)c1 (racemic),Non-Toxic
2,CCCc1ccc(OCC(O)Cn2cc(COc3ccc([N+](=O)[O-])cc3)nn2)c(OC)c1 (racemic),Non-Toxic

# Test system: Trypanosoma cruzi
# Assay: Antitrypanosomal activity against epimastigote form of Trypanosoma cruzi Y assessed as inhibition of parasite proliferation incubated for 72 hrs by resazurin dye based analysis
# Format: functional, organism-based
# Conditions: not given
row,IC50 [µM],Structure (SMILES)
1,558,CCCc1ccc(OCC(=O)Cn2cc(-c3ccccc3)nn2)c(OC)c1
2,826,C=CCc1ccc(OCC(O)Cn2cc(COc3ccc(C(C)C)cc3)nn2)c(OC)c1 (racemic)
3,34.4,CCCc1ccc(OCC(O)Cn2cc(COc3ccc(OC)cc3)nn2)c(OC)c1 (racemic)

# More lines, now with the values behind:
row,Structure (SMILES),IC50 [µM]
1,CCCc1ccc(OCC(O)Cn2cc(COc3ccc(Cl)cc3)nn2)c(OC)c1 (racemic),19.7
2,CCCc1ccc(OCC(O)Cn2cc(COc3ccc([N+](=O)[O-])cc3)nn2)c(OC)c1 (racemic),7.3

# Test system: not listed separately
# Assay: Toxicity in po dosed Swiss mouse infected with trypomastigote form of Trypanosoma cruzi Y assessed as mortality administered via gavage for 7 days from day 5 post-infection and measured on day 13 post-infection
# Format: organism-based
# Conditions: in vivo, 192 h, time 8 day
row,Structure (SMILES),Activity
1,CCCc1ccc(OCC(O)Cn2cc(COc3ccc(Cl)cc3)nn2)c(OC)c1 (racemic),Non-Toxic
2,CCCc1ccc(OCC(O)Cn2cc(COc3ccc([N+](=O)[O-])cc3)nn2)c(OC)c1 (racemic),Non-Toxic

# Test system: Mus musculus
# Assay: Reduction in plasma IgG1 level in Swiss mouse infected with trypomastigote form of Trypanosoma cruzi Y at 10 to 50 mg/kg, po administered via gavage for 7 days from day 5 post-infection by ELISA
# Format: functional, organism-based
# Conditions: dose 10-50 mg/kg, time 7.0 day
row,Structure (SMILES),inhibition
1,CCCc1ccc(OCC(O)Cn2cc(COc3ccc([N+](=O)[O-])cc3)nn2)c(OC)c1 (racemic),inactive

# Test system: Trypanosoma cruzi
# Assay: Anti-trypanosomal activity against trypomastigote form of Trypanosoma cruzi Y infected in Swiss mouse assessed as reduction in parasitemia at 50 mg/kg, po administered via gavage for 7 days from day 5 post-infection
# Format: functional, organism-based
# Conditions: time 7.0 day
row,Structure (SMILES),Activity
1,CCCc1ccc(OCC(O)Cn2cc(COc3ccc([N+](=O)[O-])cc3)nn2)c(OC)c1 (racemic),Active

# Test system: not listed separately
# Assay: Hepatotoxicity in Swiss mouse infected with trypomastigote form of Trypanosoma cruzi Y assessed as plasma aspartate aminotransferase level at 50 to 100 mg/kg, po administered via gavage for 7 days from day 5 post-infection by spectrophotometry
# Format: toxicity, organism-based
# Conditions: in vivo, 168 h, dose 50-100 mg/kg, time 7 day
row,Structure (SMILES),Activity
1,CCCc1ccc(OCC(O)Cn2cc(COc3ccc(Cl)cc3)nn2)c(OC)c1 (racemic),Non-Toxic
2,CCCc1ccc(OCC(O)Cn2cc(COc3ccc([N+](=O)[O-])cc3)nn2)c(OC)c1 (racemic),Non-Toxic

# Test system: H9c2
# Assay: (§1) Cytotoxicity against rat H9c2 cells assessed as reduction in cell viability measured after 72 hrs by resazurin due based analysis
# Format: toxicity
# Conditions: h9c2
row,Structure (SMILES),IC50 [µM]
1,CCCc1ccc(OCC(=O)Cn2cc(-c3ccccc3)nn2)c(OC)c1,1070

# Test system: not listed separately
# Assay: as §1
# Format: toxicity
# Conditions: rat, H9c2 cells
row,Structure (SMILES),IC50 at 72 h [µM]
1,C=CCc1ccc(OCC(O)Cn2cc(COc3ccc(C(C)C)cc3)nn2)c(OC)c1 (racemic),480
2,CCCc1ccc(OCC(O)Cn2cc(COc3ccc(OC)cc3)nn2)c(OC)c1 (racemic),315
3,CCCc1ccc(OCC(O)Cn2cc(COc3ccc(Cl)cc3)nn2)c(OC)c1 (racemic),132
4,CCCc1ccc(OCC(O)Cn2cc(COc3ccc([N+](=O)[O-])cc3)nn2)c(OC)c1 (racemic),568

# Test system: Mus musculus
# Assay: Reduction in plasma total IgG level in Swiss mouse infected with trypomastigote form of Trypanosoma cruzi Y at 10 to 50 mg/kg, po administered via gavage for 7 days from day 5 post-infection by ELISA
# Format: functional, organism-based
# Conditions: dose 10-50 mg/kg, time 7.0 day
row,Structure (SMILES),inhibition
1,CCCc1ccc(OCC(O)Cn2cc(COc3ccc([N+](=O)[O-])cc3)nn2)c(OC)c1 (racemic),inactive

# Test system: Mus musculus
# Assay: Reduction in cardiac inflammation in Swiss mouse infected with trypomastigote form of Trypanosoma cruzi Y assessed as reduction in inflammatory nuclei at 10 to 100 mg/kg, po administered via gavage for 7 days from day 5 post-infection by Hematoxylin-Eosin staining based microscopy
# Format: functional, organism-based
# Conditions: dose 10-100 mg/kg, time 7.0 day
row,Structure (SMILES),inhibition
1,CCCc1ccc(OCC(O)Cn2cc(COc3ccc([N+](=O)[O-])cc3)nn2)c(OC)c1 (racemic),Active

# Test system: not listed separately
# Assay: Selectivity index, ratio of CC50 for cytotoxicity against rat H9c2 cells to IC50 for antitrypanosomal activity against epimastigote form of Trypanosoma cruzi Y
# Format: toxicity, cell-based
# Conditions: read-out: Ratio IC50
row,Structure (SMILES),selectivity ratio
1,CCCc1ccc(OCC(=O)Cn2cc(-c3ccccc3)nn2)c(OC)c1,1.9
2,C=CCc1ccc(OCC(O)Cn2cc(COc3ccc(C(C)C)cc3)nn2)c(OC)c1 (racemic),0.5
3,CCCc1ccc(OCC(O)Cn2cc(COc3ccc(OC)cc3)nn2)c(OC)c1 (racemic),9.1
4,CCCc1ccc(OCC(O)Cn2cc(COc3ccc(Cl)cc3)nn2)c(OC)c1 (racemic),6.6
5,CCCc1ccc(OCC(O)Cn2cc(COc3ccc([N+](=O)[O-])cc3)nn2)c(OC)c1 (racemic),77.6

# Test system: not listed separately
# Assay: Genotoxicity in rat H9c2 cells assessed as induction of DNA damage at 10 uM incubated for 72 hrs by gel electrophoresis analysis
# Format: toxicity, cell-based
# Conditions: h9c2, 72 h
row,Structure (SMILES),Activity
1,CCCc1ccc(OCC(O)Cn2cc(COc3ccc([N+](=O)[O-])cc3)nn2)c(OC)c1 (racemic),Non-Toxic

# Test system: Trypanosoma cruzi
# Assay: Anti-trypanosomal activity against trypomastigote form of Trypanosoma cruzi Y infected in Swiss mouse assessed as reduction in parasitemia at 100 mg/kg, po administered via gavage for 7 days from day 5 post-infection
# Format: functional
# Conditions: 168 h, time 7 day
row,Structure (SMILES),inhibition in vivo at 100 mg/kg [%]
1,CCCc1ccc(OCC(O)Cn2cc(COc3ccc([N+](=O)[O-])cc3)nn2)c(OC)c1 (racemic),99.4

# Test system: Mus musculus
# Assay: Reduction in plasma total IgG level in Swiss mouse infected with trypomastigote form of Trypanosoma cruzi Y at 100 mg/kg, po administered via gavage for 7 days from day 5 post-infection by ELISA
# Format: functional, organism-based
# Conditions: time 7.0 day
row,Structure (SMILES),inhibition
1,CCCc1ccc(OCC(O)Cn2cc(COc3ccc([N+](=O)[O-])cc3)nn2)c(OC)c1 (racemic),Active

# Test system: Mus musculus
# Assay: Reduction in plasma IgG1 level in Swiss mouse infected with trypomastigote form of Trypanosoma cruzi Y at 100 mg/kg, po administered via gavage for 7 days from day 5 post-infection by ELISA
# Format: functional, organism-based
# Conditions: time 7.0 day
row,Structure (SMILES),inhibition
1,CCCc1ccc(OCC(O)Cn2cc(COc3ccc([N+](=O)[O-])cc3)nn2)c(OC)c1 (racemic),Active

# Test system: not listed separately
# Assay: Toxicity in Swiss mouse infected with trypomastigote form of Trypanosoma cruzi Y assessed as increase in weight gain at 10 to 100 mg/kg, po administered via gavage for 7 days from day 5 post-infection
# Format: organism-based
# Conditions: in vivo, 168 h, dose 10-100 mg/kg, time 7 day
row,Structure (SMILES),Activity
1,CCCc1ccc(OCC(O)Cn2cc(COc3ccc(Cl)cc3)nn2)c(OC)c1 (racemic),Non-Toxic
2,CCCc1ccc(OCC(O)Cn2cc(COc3ccc([N+](=O)[O-])cc3)nn2)c(OC)c1 (racemic),Toxic

# Test system: Trypanosoma cruzi
# Assay: Anti-trypanosomal activity against trypomastigote form of Trypanosoma cruzi Y infected in Swiss mouse assessed as reduction in parasitemia at 10 to 100 mg/kg, po administered via gavage for 7 days from day 5 post-infection
# Format: functional, organism-based
# Conditions: dose 10-100 mg/kg, time 7.0 day
row,Structure (SMILES),Activity
1,CCCc1ccc(OCC(O)Cn2cc(COc3ccc(Cl)cc3)nn2)c(OC)c1 (racemic),inactive

# Test system: not listed separately
# Assay: Toxicity in po dosed Swiss mouse infected with trypomastigote form of Trypanosoma cruzi Y assessed as fur alteration administered via gavage for 7 days from day 5 post-infection and measured on day 13 post-infection
# Format: organism-based
# Conditions: in vivo, 192 h, time 8 day
row,Structure (SMILES),Activity
1,CCCc1ccc(OCC(O)Cn2cc(COc3ccc([N+](=O)[O-])cc3)nn2)c(OC)c1 (racemic),Non-Toxic

# Test system: Trypanosoma cruzi
# Assay: Antitrypanosomal activity against trypomastigote form of Trypanosoma cruzi Y assessed as inhibition of parasite viability incubated for 24 hrs by light microscopy
# Format: functional, organism-based
# Conditions: not given
row,Structure (SMILES),IC50 [µM]
1,CCCc1ccc(OCC(O)Cn2cc(COc3ccc(Cl)cc3)nn2)c(OC)c1 (racemic),20.7
2,CCCc1ccc(OCC(O)Cn2cc(COc3ccc([N+](=O)[O-])cc3)nn2)c(OC)c1 (racemic),8.41

# Test system: Mus musculus
# Assay: Reduction in plasma IgG2 level in Swiss mouse infected with trypomastigote form of Trypanosoma cruzi Y at 10 to 50 mg/kg, po administered via gavage for 7 days from day 5 post-infection by ELISA
# Format: functional, organism-based
# Conditions: dose 10-50 mg/kg, time 7.0 day
row,Structure (SMILES),inhibition
1,CCCc1ccc(OCC(O)Cn2cc(COc3ccc([N+](=O)[O-])cc3)nn2)c(OC)c1 (racemic),inactive

# Test system: not listed separately
# Assay: Toxicity in po dosed Swiss mouse infected with trypomastigote form of Trypanosoma cruzi Y assessed as bristly fur administered via gavage for 7 days from day 5 post-infection and measured on day 13 post-infection
# Format: organism-based
# Conditions: in vivo, 192 h, time 8 day
row,Structure (SMILES),Activity
1,CCCc1ccc(OCC(O)Cn2cc(COc3ccc(Cl)cc3)nn2)c(OC)c1 (racemic),Toxic

# Test system: Mus musculus
# Assay: Reduction in plasma IgG2 level in Swiss mouse infected with trypomastigote form of Trypanosoma cruzi Y at 100 mg/kg, po administered via gavage for 7 days from day 5 post-infection by ELISA
# Format: functional, organism-based
# Conditions: time 7.0 day
row,Structure (SMILES),inhibition
1,CCCc1ccc(OCC(O)Cn2cc(COc3ccc([N+](=O)[O-])cc3)nn2)c(OC)c1 (racemic),Active

# Target: Cruzipain (Trypanosoma cruzi) (UniProt P25779)
# Assay: Inhibition of recombinant Trypanosoma cruzi Cruzain using Z-FR-AMC as substrate at 100 uM measured for 5 mins by fluorescence based analysis
# Conditions: not given
row,inhibition [%],Structure (SMILES)
1,7.2,CCCc1ccc(OCC(=O)Cn2cc(-c3ccccc3)nn2)c(OC)c1
2,7.2,C=CCc1ccc(OCC(O)Cn2cc(COc3ccc(C(C)C)cc3)nn2)c(OC)c1 (racemic)
3,7.2,CCCc1ccc(OCC(O)Cn2cc(COc3ccc(OC)cc3)nn2)c(OC)c1 (racemic)

# The remaining lines, values behind:
row,Structure (SMILES),inhibition [%]
1,CCCc1ccc(OCC(O)Cn2cc(COc3ccc(Cl)cc3)nn2)c(OC)c1 (racemic),29.3
2,CCCc1ccc(OCC(O)Cn2cc(COc3ccc([N+](=O)[O-])cc3)nn2)c(OC)c1 (racemic),24

# Test system: not listed separately
# Assay: Toxicity in po dosed Swiss mouse infected with trypomastigote form of Trypanosoma cruzi Y assessed as diarrhea administered via gavage for 7 days from day 5 post-infection and measured on day 13 post-infection
# Format: organism-based
# Conditions: in vivo, 192 h, time 8 day
row,Structure (SMILES),Activity
1,CCCc1ccc(OCC(O)Cn2cc(COc3ccc(Cl)cc3)nn2)c(OC)c1 (racemic),Non-Toxic
2,CCCc1ccc(OCC(O)Cn2cc(COc3ccc([N+](=O)[O-])cc3)nn2)c(OC)c1 (racemic),Non-Toxic

# Reference: ChEMBL document CHEMBL5620433, “Design and synthesis of new 1,2,3-triazoles derived from eugenol and analogues with in vitro and in vivo activity against Trypanosoma cruzi” (Eur J Med Chem, 2023)
